# Results reported in the Kinase Knowledgebase extract (Sharma et al. 2016).
# pIC50: −log10 of the molar value.
# Columns and labels:
# EGFR = EGFR (UniProt P00533); conditions: concentration not given here
# CDK2 = CDK2 (UniProt P24941); test: Enzyme Assay
# Chain of EGFR (P00533 whole entry, looked up): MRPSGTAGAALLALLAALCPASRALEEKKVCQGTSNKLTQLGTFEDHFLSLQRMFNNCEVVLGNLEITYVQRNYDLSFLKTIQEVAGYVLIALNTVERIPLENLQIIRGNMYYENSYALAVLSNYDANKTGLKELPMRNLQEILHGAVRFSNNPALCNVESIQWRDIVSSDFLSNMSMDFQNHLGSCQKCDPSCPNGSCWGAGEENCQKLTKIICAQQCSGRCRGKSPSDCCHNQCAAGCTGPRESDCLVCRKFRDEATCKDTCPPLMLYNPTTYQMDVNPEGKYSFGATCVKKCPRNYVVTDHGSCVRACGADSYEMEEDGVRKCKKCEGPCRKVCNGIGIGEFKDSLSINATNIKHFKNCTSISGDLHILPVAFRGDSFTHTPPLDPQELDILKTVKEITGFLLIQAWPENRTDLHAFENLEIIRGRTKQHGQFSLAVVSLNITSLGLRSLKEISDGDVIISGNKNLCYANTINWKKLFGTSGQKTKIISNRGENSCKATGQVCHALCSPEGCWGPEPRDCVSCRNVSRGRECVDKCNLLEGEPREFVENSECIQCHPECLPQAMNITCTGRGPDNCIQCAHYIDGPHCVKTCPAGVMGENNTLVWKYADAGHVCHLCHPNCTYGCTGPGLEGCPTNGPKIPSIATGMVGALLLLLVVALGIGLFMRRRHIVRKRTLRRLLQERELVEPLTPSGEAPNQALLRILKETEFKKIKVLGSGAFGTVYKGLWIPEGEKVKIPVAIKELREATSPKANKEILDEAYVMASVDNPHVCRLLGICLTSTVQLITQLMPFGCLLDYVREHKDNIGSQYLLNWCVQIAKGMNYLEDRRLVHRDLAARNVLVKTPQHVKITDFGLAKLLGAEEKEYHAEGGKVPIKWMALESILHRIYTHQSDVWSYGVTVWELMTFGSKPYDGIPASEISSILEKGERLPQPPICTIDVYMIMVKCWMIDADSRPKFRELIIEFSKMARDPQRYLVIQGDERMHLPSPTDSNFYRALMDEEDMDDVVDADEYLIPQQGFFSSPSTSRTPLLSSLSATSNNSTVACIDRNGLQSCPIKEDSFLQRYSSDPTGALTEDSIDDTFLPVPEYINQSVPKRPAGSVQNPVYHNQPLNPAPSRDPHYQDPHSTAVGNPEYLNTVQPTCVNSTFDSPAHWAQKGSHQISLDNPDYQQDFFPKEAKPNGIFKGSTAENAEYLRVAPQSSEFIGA
inhibition (EGFR),pIC50 (CDK2),SMILES
> 80%,5.00 to 6.00,COc1ccccc1-c1cc(Nc2ccc(NC(=O)[C@@H]3CCCCN3)cc2)ncn1
> 80%,5.00 to 6.00,NCCCOc1ccccc1-c1cc(Nc2ccc(NC(=O)c3ccc(N)cc3)cc2)ncn1
50 to 80%,5.00 to 6.00,COc1ccccc1-c1cc(Nc2ccc(NC(=O)c3cn(C)cn3)cc2)ncn1
> 80%,6.00 to 9.00,CCCS(=O)(=O)Nc1cc(Nc2cc(-c3cccc(N)c3)ncn2)ccc1C
50 to 80%,5.00 to 6.00,COc1ccccc1-c1cc(Nc2ccc(NC(=O)[C@@H](N)c3ccccc3)cc2)ncn1
> 80%,5.00 to 6.00,CCN(CC)CCC(=O)Nc1ccc(Nc2cc(-c3ccccc3OC)ncn2)cc1
> 80%,5.00 to 6.00,COc1ccccc1-c1cc(Nc2ccc(NC(=O)C3(N)CCCC3)cc2)ncn1
50 to 80%,6.00 to 9.00,COc1ccccc1-c1cc(Nc2ccc(NS(C)(=O)=O)cc2)ncn1
50 to 80%,6.00 to 9.00,COc1ccccc1-c1cc(Nc2ccc(NC(C)=O)cc2)ncn1
> 80%,5.00 to 6.00,COc1ccccc1-c1cc(Nc2ccc(NC(=O)C3CCCN(C)C3)cc2)ncn1 (centres undefined)
> 80%,5.00 to 6.00,COc1ccccc1-c1cc(Nc2ccc(NC(=O)CC3CCCCN3)cc2)ncn1 (centres undefined)
50 to 80%,6.00 to 9.00,CC(C)Oc1ccccc1-c1cc(Nc2ccc(NC(=O)c3ccc(N)cc3)cc2)ncn1
> 80%,5.00 to 6.00,COc1ccccc1-c1cc(Nc2ccc(NC(=O)C3(N)CCCCC3)cc2)ncn1
50 to 80%,6.00 to 9.00,COc1ccccc1-c1cc(Nc2ccc(N3CCCC3=O)cc2)ncn1
> 80%,5.00 to 6.00,CN[C@H](C(=O)Nc1ccc(Nc2cc(-c3ccccc3OC)ncn2)cc1)c1ccccc1
50 to 80%,5.00 to 6.00,Cc1ccc(Nc2cc(-c3cccc(N)c3)ncn2)cc1NS(=O)(=O)c1ccccc1
> 80%,6.00 to 9.00,Cc1ccc(Nc2cc(-c3cccc(N)c3)ncn2)cc1NS(C)(=O)=O
> 80%,6.00 to 9.00,COc1ccccc1-c1cc(Nc2ccc(N)cc2)ncn1
30 to 50%,5.00 to 6.00,Nc1ccc(C(=O)Nc2ccc(Nc3cc(-c4ccccc4OCc4ccccc4)ncn3)cc2)cc1
30 to 50%,5.00 to 6.00,COc1ccccc1-c1cc(Nc2ccc(NC(=O)NC3CCCCC3)cc2)ncn1
,5.00 to 6.00,COc1ccccc1-c1cc(Nc2ccc(NC(=O)c3ccc4ccccc4c3O)cc2)ncn1
,6.00 to 9.00,Cc1ccc(Nc2cc(-c3ccccc3OCc3ccccc3)ncn2)cc1NS(C)(=O)=O
50 to 80%,5.00 to 6.00,COc1ccccc1-c1cc(Nc2ccc(C(=O)N[C@@H]3CCCC[C@H]3N)cc2)ncn1.COc1ccccc1-c1cc(Nc2ccc(C(=O)N[C@H]3CCCC[C@@H]3N)cc2)ncn1

inhibition (EGFR),pIC50 (CDK2),SMILES
,5.00 to 6.00,Nc1ccc(C(=O)Nc2ccc(Nc3cc(-c4cccc(N)c4)ncn3)cc2)cc1
> 80%,5.00 to 6.00,COc1ccccc1-c1cc(Nc2ccc(NC(=O)[C@H]3CCCN3)cc2)ncn1
,5.00 to 6.00,COc1ccccc1-c1cc(Nc2ccc(NC(=O)c3c[nH]c4ccccc34)cc2)ncn1
50 to 80%,6.00 to 9.00,NC(=O)c1ccc(Nc2cc(-c3ccccc3OCc3ccccc3)ncn2)cc1
,5.00 to 6.00,COc1ccccc1-c1cc(Nc2ccc(C(=O)N[C@@H]3CCCC[C@@H]3N)cc2)ncn1.COc1ccccc1-c1cc(Nc2ccc(C(=O)N[C@H]3CCCC[C@H]3N)cc2)ncn1
,6.00 to 9.00,COc1ccccc1-c1cc(Nc2cccc(N)c2)ncn1
,3.60 to 5.00,CCCN(c1ccc(Nc2cc(-c3ccccc3OC)ncn2)cc1)S(=O)(=O)c1ccc(C)cc1
,6.00 to 9.00,N[C@@H]1CCCC[C@H]1NC(=O)c1ccc(Nc2cc(-c3ccccc3OCc3ccccc3)ncn2)cc1.N[C@H]1CCCC[C@@H]1NC(=O)c1ccc(Nc2cc(-c3ccccc3OCc3ccccc3)ncn2)cc1
,6.00 to 9.00,COc1ccccc1-c1cc(Nc2cccc(S(C)(=O)=O)c2)ncn1
,6.00 to 9.00,COC(=O)c1ccc(Nc2cc(-c3ccccc3OC)ncn2)cc1
,5.00 to 6.00,Cc1ccc(Nc2cc(-c3cccc(CO)c3)ncn2)cc1NS(C)(=O)=O
> 80%,5.00 to 6.00,COc1ccccc1-c1cc(Nc2ccc(NC(=O)CCN)cc2)ncn1
> 80%,5.00 to 6.00,CNC(C)(C)C(=O)Nc1ccc(Nc2cc(-c3ccccc3OC)ncn2)cc1
,6.00 to 9.00,Cc1ccc(Nc2cc(-c3ccccc3OC(C)C)ncn2)cc1NS(C)(=O)=O
,5.00 to 6.00,COc1ccccc1-c1cc(N(C)c2ccc(NS(=O)(=O)c3ccc(C)cc3)cc2)ncn1
> 80%,5.00 to 6.00,COc1ccccc1-c1cc(Nc2ccc(NC(=O)[C@@H]3Cc4ccccc4CN3)cc2)ncn1
,3.60 to 5.00,Cc1ccc(Nc2cc(-c3cccc(N)c3)ncn2)cc1NS(=O)(=O)c1cccc2cccnc12
,6.00 to 9.00,COc1ccccc1-c1cc(Nc2ccc(C)c(NS(C)(=O)=O)c2)ncn1
,5.00 to 6.00,CC(C)Oc1ccccc1-c1cc(NCCc2ccncc2)ncn1
,3.60 to 5.00,Cc1ccc(S(=O)(=O)Nc2ccc(Nc3cc(-c4ccc(CCC(=O)O)cc4)ncn3)cc2)cc1
,5.00 to 6.00,COc1ccccc1-c1cc(Nc2ccc(NC(=O)CC(C)(C)C)cc2)ncn1
,6.00 to 9.00,COc1ccccc1-c1cc(Nc2ccc(NS(=O)(=O)c3ccccc3)cc2)ncn1
,3.60 to 5.00,COc1ccccc1-c1cc(Nc2ccc(NC(=O)Nc3ccc4c(c3)OCO4)cc2)ncn1

inhibition (EGFR),pIC50 (CDK2),SMILES
,3.60 to 5.00,Oc1ccccc1-c1cc(NCCc2ccncc2)ncn1
,6.00 to 9.00,Cc1ccc(Nc2cc(-c3ccccc3)ncn2)cc1NS(C)(=O)=O
,3.60 to 5.00,COc1ccccc1-c1cc(Nc2ccc(NC(=O)c3ccc4[nH]cnc4c3)cc2)ncn1
,5.00 to 6.00,CCOc1ccccc1-c1cc(Nc2ccc(NC(=O)c3ccc(N)cc3)cc2)ncn1
,5.00 to 6.00,COc1ncccc1-c1cc(Nc2ccc(NC(=O)[C@@H]3CCCCN3)cc2)ncn1
,5.00 to 6.00,COc1ccccc1-c1cc(Nc2ccc(NS(=O)(=O)c3ccc(C(C)C)cc3)cc2)ncn1
,3.60 to 5.00,Cc1ccc(S(=O)(=O)Nc2ccc(Nc3cc(-c4cccc(/C=C/C(=O)O)c4)ncn3)cc2)cc1
,5.00 to 6.00,COc1ccccc1-c1cc(Nc2ccc(C(=O)Nc3ccc(N4CCOCC4)cc3)cc2)ncn1
> 80%,6.00 to 9.00,COc1ccccc1-c1cc(Nc2ccc(C(=O)NC3CCCNC3)cc2)ncn1 (centres undefined)
,5.00 to 6.00,CS(=O)(=O)Nc1cccc(-c2cc(Nc3ccc(C(=O)N[C@@H]4CCCC[C@H]4N)cc3)ncn2)c1.CS(=O)(=O)Nc1cccc(-c2cc(Nc3ccc(C(=O)N[C@H]4CCCC[C@@H]4N)cc3)ncn2)c1
,6.00 to 9.00,CCCS(=O)(=O)Nc1ccc(Nc2cc(-c3ccccc3OC)ncn2)cc1
,5.00 to 6.00,Nc1cccc(-c2cc(Nc3cccc(S(N)(=O)=O)c3)ncn2)c1
,3.60 to 5.00,COc1ccccc1-c1cc(Nc2ccc(NC(=O)C(C)(C)C)cc2C)ncn1
30 to 50%,5.00 to 6.00,COc1ccccc1-c1cc(Nc2ccc(NC(=O)Cc3ccccc3)cc2)ncn1
,5.00 to 6.00,COc1ccccc1-c1cc(Nc2ccc(C(=O)NC(C)(C)C)cc2)ncn1
,5.00 to 6.00,COc1ccccc1-c1cc(Nc2ccc(NC(=N)N)cc2)ncn1
,6.00 to 9.00,COc1ccc(-c2cc(Nc3ccc(NC(=O)c4ccc(N)cc4)cc3)ncn2)c(OC)c1
> 80%,5.00 to 6.00,COc1ccccc1-c1cc(Nc2ccc(NC(=O)[C@H]3CCCCN3)cc2)ncn1
,3.60 to 5.00,O=C(Nc1ccc(Nc2cc(-c3ccccc3Cl)ncn2)cc1)[C@@H]1CCCCN1
,6.00 to 9.00,O=C(Nc1ccc(Nc2cc(-c3ccccc3OCc3ccccc3)ncn2)cc1)[C@@H]1CCCCN1
,3.60 to 5.00,COc1ccccc1-c1cc(Nc2ccc(C(=O)Nc3ccccc3)cc2)ncn1
,3.60 to 5.00,COc1ccccc1-c1ncnc(Nc2ccc(N)cc2)c1C
50 to 80%,5.00 to 6.00,COc1ccccc1-c1cc(Nc2ccc(NC(=O)c3ccc(N4CCN(C)CC4)cc3)cc2)ncn1
